± gives the expanded uncertainty stated by the source.
Test: mn = molality of the nth substance listed, in mol/kg
Conditions: 101 kPa, Liquid, Vibrating tube method

Question: For [Cl-].[Na+] [sodium chloride] + O, which mass density (288.15 K, m1 = 0.2) is on record?
Answer: 1007.43 ± 0.31 kg/m3

Question: What about the mass density (288.15 K, m1 = 0.4) of the same compound?
Answer: 1015.66 ± 0.33 kg/m3

Question: And the mass density (288.15 K, m1 = 0.6)?
Answer: 1023.65 ± 0.34 kg/m3

Question: What about the mass density (288.15 K, m1 = 0.8) of the same compound?
Answer: 1031.47 ± 0.35 kg/m3

Question: What about the mass density (288.15 K, m1 = 1) of the same compound?
Answer: 1039.16 ± 0.37 kg/m3

Question: And the mass density (288.15 K, m1 = 1.5)?
Answer: 1058.09 ± 0.41 kg/m3

Question: And the mass density (298.15 K, m1 = 0.2)?
Answer: 1005.16 ± 0.31 kg/m3

Question: What about the mass density (298.15 K, m1 = 0.4) of the same compound?
Answer: 1013.14 ± 0.32 kg/m3

Question: What about the mass density (298.15 K, m1 = 0.6) of the same compound?
Answer: 1020.96 ± 0.34 kg/m3

Question: And the mass density (298.15 K, m1 = 0.8)?
Answer: 1028.64 ± 0.35 kg/m3

Question: And the mass density (298.15 K, m1 = 1)?
Answer: 1036.19 ± 0.37 kg/m3

Question: What about the mass density (298.15 K, m1 = 1.5) of the same compound?
Answer: 1054.58 ± 0.4 kg/m3

Question: What about the mass density (308.15 K, m1 = 0.2) of the same compound?
Answer: 1002.07 ± 0.31 kg/m3

Question: And the mass density (308.15 K, m1 = 0.4)?
Answer: 1009.91 ± 0.32 kg/m3

Question: And the mass density (308.15 K, m1 = 0.6)?
Answer: 1017.59 ± 0.33 kg/m3

Question: What about the mass density (308.15 K, m1 = 0.8) of the same compound?
Answer: 1025.13 ± 0.35 kg/m3

Question: And the mass density (308.15 K, m1 = 1.5)?
Answer: 1050.69 ± 0.4 kg/m3

Question: What about the mass density (318.15 K, m1 = 0.2) of the same compound?
Answer: 998.17 ± 0.3 kg/m3

Question: And the mass density (318.15 K, m1 = 0.4)?
Answer: 1005.91 ± 0.32 kg/m3

Question: What about the mass density (318.15 K, m1 = 0.8) of the same compound?
Answer: 1020.82 ± 0.34 kg/m3

Question: And the mass density (318.15 K, m1 = 1)?
Answer: 1028.35 ± 0.36 kg/m3

Question: And the mass density (318.15 K, m1 = 1.5)?
Answer: 1046.38 ± 0.39 kg/m3

— the NIST ThermoML archive (doi:10.1016/j.tca.2013.08.007)
